Reference: US7964531B2, “3-phenoxy-4-pyridazinol derivatives and herbicidal composition containing the same” (Mitsui Chemicals Agro, Inc., priority 2001, dated 2011)

Columns and labels:
Type in all cases: in vivo
Cyperus serotinus [1] = assay: Test Example 1: herbicidal effects, paddy-field pot test; conditions: wettable powder applied 3 days after transplanting, judged after 25 days
How it was run: (§1)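 Greenhouse, flooded paddy soil; weeds from seed (top 1 cm), C. serotinus from germinated tubers, rice transplanted at 2.2-leaf stage. WP diluted in water, applied to pot day 3 post-transplant. Scored day 25 post-treatment, 0–5 inhibition scale.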

Scirpus joncoides [2] = assay: as above; conditions: wettable powder applied 3 days after transplanting, judged after 25 days
How it was run: as §1

[3] = tested on: annual broad-leaved weeds (Lindernia spp., Rotala indica); assay: as above; conditions: wettable powder applied 3 days after transplanting, judged after 25 days
How it was run: as §1

[4] = tested on: barnyardgrass (Echinochloa oryzicola Vasing.); assay: as above; conditions: wettable powder applied 3 days after transplanting, judged after 25 days
How it was run: as §1

[5] = tested on: transplanted paddy-field rice; assay: Test Example 1: crop injury against transplanted paddy-field rice; conditions: wettable powder applied 3 days after transplanting, judged after 25 days
How it was run: as §1

barnyardgrass = assay: Test Example 2: herbicidal effects (soil treatment); conditions: dosage 2 kg/a; soil treatment the day after seeding; judged after 21 days
How it was run: (§2)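 Pre-emergence test: seeds sown in upland soil in 150 cm^2 pots in a greenhouse, wettable powder diluted in water applied to soil surface the day after sowing at a predetermined dosage. Growth inhibition scored 21 days after treatment on a 0–5 scale (0: 0–10% to 5: 91–100%).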

[6] = tested on: indian mustard (Brassica juncea (L.) Czern. et Coss); assay: as above; conditions: dosage 2 kg/a; soil treatment the day after seeding; judged after 21 days
How it was run: as §2

black nightshade = assay: Test Example 3: herbicidal effects (foliar treatment); conditions: chemical dosage 2 kg/a; foliar treatment at 10 to 15 cm; judged after 14 days
Experimental: (§3) Judgment Standard • 0: Growth inhibition rate; 0 to 10% • 1: Growth inhibition rate; 11 to 30% • 2: Growth inhibition rate; 31 to 50% • 3: Growth inhibition rate; 51 to 70% • 4: Growth inhibition rate; 71 to 90% • 5: Growth inhibition rate; 91 to 100%.
(§4) Upland soil was filled in 150 cm^2 pot, and seeds of velvetleaf, tall morningglory, indian mustard, black nightshade redroot pigweed were sowed, and grown in a greenhouse. After the weeds were grown with 10 to 15 cm or so, a predetermined chemical dosage of the wettable powder prepared in accordance with Preparation example 1 was diluted with water containing 0.05% of GRAMIN-S and applied as a foliar treatment. After 14 days from the treatment, herbicidal effects were judged in accordance with the judgment standard of Test example 1, and the results were shown in Table 4. Incidentally, “-” in the table means no test was carried out.

indian mustard = assay: as above; conditions: chemical dosage 2 kg/a; foliar treatment at 10 to 15 cm; judged after 14 days
Experimental: as §3, §4

redroot pigweed = assay: as above; conditions: chemical dosage 2 kg/a; foliar treatment at 10 to 15 cm; judged after 14 days
Experimental: as §3, §4

tall morningglory = assay: as above; conditions: chemical dosage 2 kg/a; foliar treatment at 10 to 15 cm; judged after 14 days
Experimental: as §3, §4

velvetleaf = assay: as above; conditions: chemical dosage 2 kg/a; foliar treatment at 10 to 15 cm; judged after 14 days
Experimental: as §3, §4

Cyperus serotinus [7] = assay: Test Example 4: herbicidal effects of mixed wettable powder, paddy-field pot test; conditions: no second compound, after 25 days
How it was run: (§5)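 Flooded greenhouse pots of paddy soil were sown in the top 1 cm with dormancy-broken weed seeds and planted with tubers, and 2.2-leaf rice was transplanted. Three days later, water-diluted wettable powder was applied at set dosages, and growth inhibition was rated 25 days after that on a 0 (0–15%) to 5 (96–100%) scale.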

Eleocharis kuroguwai = assay: as above; conditions: no second compound, after 25 days
How it was run: as §5

Sagittaria pygmaea = assay: as above; conditions: no second compound, after 25 days
How it was run: as §5

Scirpus joncoides [8] = assay: as above; conditions: no second compound, after 25 days
How it was run: as §5

[9] = tested on: annual broad-leaved weeds (Lindernia spp. and Rotala indica); assay: as above; conditions: no second compound, after 25 days
How it was run: as §5

[10] = tested on: barnyardgrass (Echinochloa oryzicola Vasing.); assay: as above; conditions: no second compound, after 25 days
How it was run: as §5

[11] = tested on: transplanted paddy-field rice; assay: Test Example 4: crop injury against transplanted paddy-field rice; conditions: no second compound, after 25 days
How it was run: as §5

Cc1cccc(C2CC2)c1Oc1nnc(Cl)cc1O [Example 23]
Herbicidal effects Cyperus serotinus (Cyperus serotinus [1]; chemical dosage 10 g/a): 5 (Growth inhibition rate; 91 to 100%) | Herbicidal effects Cyperus serotinus (Cyperus serotinus [1]; chemical dosage 20 g/a): 5 (Growth inhibition rate; 91 to 100%) | Herbicidal effects Scirpus joncoides (Scirpus joncoides [2]; chemical dosage 10 g/a): 5 (Growth inhibition rate; 91 to 100%) | Herbicidal effects Scirpus joncoides (Scirpus joncoides [2]; chemical dosage 20 g/a): 5 (Growth inhibition rate; 91 to 100%) | Herbicidal effects Broad leaf ([3]; chemical dosage 10 g/a): 5 (Growth inhibition rate; 91 to 100%) | Herbicidal effects Broad leaf ([3]; chemical dosage 20 g/a): 5 (Growth inhibition rate; 91 to 100%) | Herbicidal effects Barnyard grass ([4]; chemical dosage 10 g/a): 3 (Growth inhibition rate; 51 to 70%) | Herbicidal effects Barnyard grass ([4]; chemical dosage 20 g/a): 4 (Growth inhibition rate; 71 to 90%) | Crop injury against transplanted rice ([5]; chemical dosage 10 g/a): 0 (Growth inhibition rate; 0 to 10%) | Crop injury against transplanted rice ([5]; chemical dosage 20 g/a): 2 (Growth inhibition rate; 31 to 50%) | Herbicidal effects Barnyard-grass (barnyardgrass): 4 (Growth inhibition rate; 71 to 90%) | Herbicidal effects indian mustard [6]: 5 (Growth inhibition rate; 91 to 100%) | Herbicidal effects Black Night-shade (black nightshade): 5 (Growth inhibition rate; 91 to 100%) | Herbicidal effects indian mustard (indian mustard): 5 (Growth inhibition rate; 91 to 100%) | Herbicidal effects Redroot pigweed (redroot pigweed): 4 (Growth inhibition rate; 71 to 90%) | Herbicidal effects Tall Morningglory (tall morningglory): 5 (Growth inhibition rate; 91 to 100%) | Herbicidal effects Velvet-leaf (velvetleaf): 4 (Growth inhibition rate; 71 to 90%) | Herbicidal effects Cyperus serotinus (Cyperus serotinus [7]; derivative 5 g/a): 5 (Growth inhibition rate; 96 to 100%) | Herbicidal effects Cyperus serotinus (Cyperus serotinus [7]; derivative 10 g/a): 5 (Growth inhibition rate; 96 to 100%) | Herbicidal effects Eleocharis kuroguwai (Eleocharis kuroguwai; derivative 5 g/a): 2 (Growth inhibition rate; 36 to 55%) | Herbicidal effects Eleocharis kuroguwai (Eleocharis kuroguwai; derivative 10 g/a): 3 (Growth inhibition rate; 56 to 75%) | Herbicidal effects Sagittaria pygmaea (Sagittaria pygmaea; derivative 5 g/a): 5 (Growth inhibition rate; 96 to 100%) | Herbicidal effects Sagittaria pygmaea (Sagittaria pygmaea; derivative 10 g/a): 5 (Growth inhibition rate; 96 to 100%) | Herbicidal effects Scirpus joncoides (Scirpus joncoides [8]; derivative 5 g/a): 5 (Growth inhibition rate; 96 to 100%) | Herbicidal effects Scirpus joncoides (Scirpus joncoides [8]; derivative 10 g/a): 5 (Growth inhibition rate; 96 to 100%) | Herbicidal effects Broad leaf ([9]; derivative 5 g/a): 5 (Growth inhibition rate; 96 to 100%) | Herbicidal effects Broad leaf ([9]; derivative 10 g/a): 5 (Growth inhibition rate; 96 to 100%) | Herbicidal effects Barnyard grass ([10]; derivative 5 g/a): 2 (Growth inhibition rate; 36 to 55%) | Herbicidal effects Barnyard grass ([10]; derivative 10 g/a): 3 (Growth inhibition rate; 56 to 75%) | Crop injury against transplanted rice ([11]; derivative 5 g/a): 0 (Growth-inhibition rate; 0 to 15%) | Crop injury against transplanted rice ([11]; derivative 10 g/a): 0 (Growth-inhibition rate; 0 to 15%)
